# Where “and” joins values, the source holds several entries; their conditions need not be identical. Equal values may be shown once. Read-outs that look alike come from different tables or passages of the source.
# Assays:
# CCRF-CEM cells = experiment: cell viability, CTG assay, CCRF-CEM; details: Homo sapiens
# Experimental: Data are the mean ± stdev of 3 biological replicates. c Viability of healthy T-cells measured by propidium iodide (PI) exclusion. Data are the mean ± stdev of 8 biological replicates for 1–16 µM AVX420, 5 for 32 µM AVX420 and 2 for 0.5 µM Staurosporine (Stau). d Cell viability measured by CTG assay in cells preincubated with 2.5 mM glutathione (GSH) or 2.5 mM N-acetyl cysteine (NAC) for 30 min before addition of 0.5 or 1 µM AVX420, 0.06 µM RSL-3, or 0.06 µM ML-210 for 24 h. Data are the mean ± stdev of 3 biological replicates. P-values were determined by one-way ANOVA with Dunnett’s correction for multiple testing and **** indicates P < 0.0001. e Cell viability measured by CTG assay. CCRF-CEM or Jurkat cells were co-treated with 0.5 µM AVX420 and either arachidonic acid (AA) at concentrations ranging from 1 to 100 µM or a mixture of 9 eicosanoids: 6-keto prostaglandin F1α, Thromboxane B2, prostaglandin F2α, prostaglandin E2, prostaglandin D2, 12(S)-HHTrE, 15(S)-HETE,12(S)-HETE, 5(S)-HETE at a final concentration of 2 ng/mL each (EIC-mix) for 24 h. Data are the mean ± stdev of 3 biological replicates. P-values were determined by two-way ANOVA with Sidak’s correction for multiple comparisons. f Proportion of intracellular ROS-positive cells measured by ROS-red staining and flow cytometry. Cells were treated with indicated concentrations of AVX420 (µM), 1 mM H2O2, 1 µM RSL-3, or 1 µM doxorubicin (dox) for 4 h. Data are the mean ± stdev of 3 biological replicates. g Intracellular ROS measurements in CCRF-CEM cells treated with AVX420 (0.5 µM), AVX002 (8 µM), or AACOCF3 (8 µM) for 4 h.
# All cell lines were confirmed to be free of mycoplasma contamination. The cell lines were not authenticated. MV-4-11 were cultured in Iscove’s Modified Dulbecco’s Medium (Sigma, I3390). CCRF-CEM, Jurkat E6.1, and HL-60 cells were cultured in RPMI 1640 Medium RPMI-1640 medium (Sigma, R5886).
# Jurkat E6.1 cells = experiment: cell viability, CTG assay, Jurkat E6.1; type: cell-based, human; details: for viability at 0.125 µM: Jurkat E6.1, 0.125 µM; for cell viability (0 µM = 100): listed as AVX420; for cell viability (Control = 100): Jurkat cells
# Text: Data are the mean ± stdev of 3 biological replicates. […] Data are the mean ± stdev of 3 biological replicates.
# Bjørn Tore Gjertsen (University of Bergen, Norway). […] The cell lines were not authenticated.
smiles,measurement,setting,value
CCCCCCCOc1ccc(OCC(=O)c2nc(C(=O)OC)cs2)cc1 [GK420],viability at 0.031 µM,"CCRF-CEM cells; 48 h, read-out: cell viability (0 µM = 100), CCRF-CEM, 0.031 µM, 48H",87%
same,viability at 0.062 µM,"CCRF-CEM cells; 48 h, read-out: cell viability (0 µM = 100), CCRF-CEM, 0.062 µM, 48H",85%
same,viability at 0.125 µM,"CCRF-CEM cells; 48 h, read-out: cell viability (0 µM = 100), CCRF-CEM, 0.125 µM, 48H",67%
same,viability at 0.25 µM,"CCRF-CEM cells; 48 h, read-out: cell viability (0 µM = 100), CCRF-CEM, 0.25 µM, 48H",41%
same,viability at 0.5 µM,"CCRF-CEM cells; 48 h, read-out: cell viability (0 µM = 100), CCRF-CEM, 0.5 µM, 48H",17%
same,viability at 1 µM,"CCRF-CEM cells; 48 h, read-out: cell viability (0 µM = 100), CCRF-CEM, 1 µM, 48H",9%
same,viability at 2 µM,"CCRF-CEM cells; 48 h, read-out: cell viability (0 µM = 100), CCRF-CEM, 2 µM, 48H",4%
same,viability at 0.007 µM,"CCRF-CEM cells; 72 h, read-out: cell viability (0 µM = 100), CCRF-CEM, 0.007 µM, 72H",82%
same,viability at 0.015 µM,"CCRF-CEM cells; 72 h, read-out: cell viability (0 µM = 100), CCRF-CEM, 0.015 µM, 72H",78%
same,viability at 0.031 µM,"CCRF-CEM cells; 72 h, read-out: cell viability (0 µM = 100), CCRF-CEM, 0.031 µM, 72H",76%
same,viability at 0.062 µM,"CCRF-CEM cells; 72 h, read-out: cell viability (0 µM = 100), CCRF-CEM, 0.062 µM, 72H",67%
same,viability at 0.125 µM,"CCRF-CEM cells; 72 h, read-out: cell viability (0 µM = 100), CCRF-CEM, 0.125 µM, 72H",40%
same,viability at 0.25 µM,"CCRF-CEM cells; 72 h, read-out: cell viability (0 µM = 100), CCRF-CEM, 0.25 µM, 72H",21%
same,viability at 0.5 µM,"CCRF-CEM cells; 72 h, read-out: cell viability (0 µM = 100), CCRF-CEM, 0.5 µM, 72H",7%
same,viability at 1 µM,"CCRF-CEM cells; 72 h, read-out: cell viability (0 µM = 100), CCRF-CEM, 1 µM, 72H",3.38%
same,viability at 2 µM,"CCRF-CEM cells; 72 h, read-out: cell viability (0 µM = 100), CCRF-CEM, 2 µM, 72H",1%
same,viability at 4 µM,"CCRF-CEM cells; 72 h, read-out: cell viability (0 µM = 100), CCRF-CEM, 4 µM, 72H",0.214%
same,viability at 0.5 µM,"CCRF-CEM cells; read-out: cell viability (Control = 100), CCRF-CEM, 0.5 µM, VEH",52%
same,viability at 1 µM,"CCRF-CEM cells; read-out: cell viability (Control = 100), CCRF-CEM, 1 µM, VEH",37%
same,viability at 0.007 µM,"Jurkat E6.1 cells; Homo sapiens, Jurkat E6.1, 24 h, Jurkat E6.1, 0.007 µM, 24H, read-out: cell viability (0 µM = 100)",102%
same,viability at 0.015 µM,"Jurkat E6.1 cells; Homo sapiens, Jurkat E6.1, 24 h, Jurkat E6.1, 0.015 µM, 24H, read-out: cell viability (0 µM = 100)",96%
same,viability at 0.031 µM,"Jurkat E6.1 cells; Homo sapiens, Jurkat E6.1, 24 h, Jurkat E6.1, 0.031 µM, 24H, read-out: cell viability (0 µM = 100)",99%
same,viability at 0.062 µM,"Jurkat E6.1 cells; Homo sapiens, Jurkat E6.1, 24 h, Jurkat E6.1, 0.062 µM, 24H, read-out: cell viability (0 µM = 100)",103%
same,viability at 0.125 µM,"Jurkat E6.1 cells; Homo sapiens, Jurkat E6.1, 24 h, 24H, read-out: cell viability (0 µM = 100)",101%
same,viability at 0.25 µM,"Jurkat E6.1 cells; Homo sapiens, Jurkat E6.1, 24 h, Jurkat E6.1, 0.25 µM, 24H, read-out: cell viability (0 µM = 100)",90%
same,viability at 0.5 µM,"Jurkat E6.1 cells; Homo sapiens, Jurkat E6.1, 24 h, Jurkat E6.1, 0.5 µM, 24H, read-out: cell viability (0 µM = 100)",51%
same,viability at 1 µM,"Jurkat E6.1 cells; Homo sapiens, Jurkat E6.1, 24 h, Jurkat E6.1, 1 µM, 24H, read-out: cell viability (0 µM = 100)",28%
same,viability at 2 µM,"Jurkat E6.1 cells; Homo sapiens, Jurkat E6.1, 24 h, Jurkat E6.1, 2 µM, 24H, read-out: cell viability (0 µM = 100)",16%
same,viability at 0.007 µM,"Jurkat E6.1 cells; Homo sapiens, Jurkat E6.1, 48 h, Jurkat E6.1, 0.007 µM, 48H, read-out: cell viability (0 µM = 100)",101%
same,viability at 0.015 µM,"Jurkat E6.1 cells; Homo sapiens, Jurkat E6.1, 48 h, Jurkat E6.1, 0.015 µM, 48H, read-out: cell viability (0 µM = 100)",99%
same,viability at 0.031 µM,"Jurkat E6.1 cells; Homo sapiens, Jurkat E6.1, 48 h, Jurkat E6.1, 0.031 µM, 48H, read-out: cell viability (0 µM = 100)",100%
same,viability at 0.062 µM,"Jurkat E6.1 cells; Homo sapiens, Jurkat E6.1, 48 h, Jurkat E6.1, 0.062 µM, 48H, read-out: cell viability (0 µM = 100)",104%
same,viability at 0.125 µM,"Jurkat E6.1 cells; Homo sapiens, Jurkat E6.1, 48 h, 48H, read-out: cell viability (0 µM = 100)",104%
same,viability at 0.25 µM,"Jurkat E6.1 cells; Homo sapiens, Jurkat E6.1, 48 h, Jurkat E6.1, 0.25 µM, 48H, read-out: cell viability (0 µM = 100)",79%
same,viability at 0.5 µM,"Jurkat E6.1 cells; Homo sapiens, Jurkat E6.1, 48 h, Jurkat E6.1, 0.5 µM, 48H, read-out: cell viability (0 µM = 100)",39%
same,viability at 1 µM,"Jurkat E6.1 cells; Homo sapiens, Jurkat E6.1, 48 h, Jurkat E6.1, 1 µM, 48H, read-out: cell viability (0 µM = 100)",16%
same,viability at 2 µM,"Jurkat E6.1 cells; Homo sapiens, Jurkat E6.1, 48 h, Jurkat E6.1, 2 µM, 48H, read-out: cell viability (0 µM = 100)",9%
same,viability at 4 µM,"Jurkat E6.1 cells; Homo sapiens, Jurkat E6.1, 48 h, Jurkat E6.1, 4 µM, 48H, read-out: cell viability (0 µM = 100)",5%
same,viability at 0.007 µM,"Jurkat E6.1 cells; Homo sapiens, Jurkat E6.1, 72 h, Jurkat E6.1, 0.007 µM, 72H, read-out: cell viability (0 µM = 100)",100%
same,viability at 0.015 µM,"Jurkat E6.1 cells; Homo sapiens, Jurkat E6.1, 72 h, Jurkat E6.1, 0.015 µM, 72H, read-out: cell viability (0 µM = 100)",97%
same,viability at 0.031 µM,"Jurkat E6.1 cells; Homo sapiens, Jurkat E6.1, 72 h, Jurkat E6.1, 0.031 µM, 72H, read-out: cell viability (0 µM = 100)",90%
same,viability at 0.062 µM,"Jurkat E6.1 cells; Homo sapiens, Jurkat E6.1, 72 h, Jurkat E6.1, 0.062 µM, 72H, read-out: cell viability (0 µM = 100)",87%
same,viability at 0.125 µM,"Jurkat E6.1 cells; Homo sapiens, Jurkat E6.1, 72 h, 72H, read-out: cell viability (0 µM = 100)",87%
same,viability at 0.25 µM,"Jurkat E6.1 cells; Homo sapiens, Jurkat E6.1, 72 h, Jurkat E6.1, 0.25 µM, 72H, read-out: cell viability (0 µM = 100)",76%
same,viability at 0.5 µM,"Jurkat E6.1 cells; Homo sapiens, Jurkat E6.1, 72 h, Jurkat E6.1, 0.5 µM, 72H, read-out: cell viability (0 µM = 100)",31%
same,viability at 1 µM,"Jurkat E6.1 cells; Homo sapiens, Jurkat E6.1, 72 h, Jurkat E6.1, 1 µM, 72H, read-out: cell viability (0 µM = 100)",10%
same,viability at 0.5 µM,"Jurkat E6.1 cells; Homo sapiens, Jurkat E6.1, Jurkat cells, 0.5 µM, VEH, read-out: cell viability (Control = 100)",50%
same,viability at 1 µM,"Jurkat E6.1 cells; Homo sapiens, Jurkat E6.1, Jurkat cells, 1 µM, VEH, read-out: cell viability (Control = 100)",34%
same,cell viability (0 µM = 100),"Jurkat E6.1 cells; Jurkat E6.1, 0.007 µM, 24H",98 and 97
same,cell viability (0 µM = 100),"Jurkat E6.1 cells; Jurkat E6.1, 0.007 µM, 48H",98 and 97
same,cell viability (0 µM = 100),"Jurkat E6.1 cells; Jurkat E6.1, 0.007 µM, 72H",98
same,cell viability (0 µM = 100),"Jurkat E6.1 cells; Jurkat E6.1, 0.015 µM, 48H",98 and 97
same,cell viability (0 µM = 100),"Jurkat E6.1 cells; Jurkat E6.1, 0.031 µM, 24H",95
same,cell viability (0 µM = 100),"Jurkat E6.1 cells; Jurkat E6.1, 0.031 µM, 48H",98
same,cell viability (0 µM = 100),"Jurkat E6.1 cells; Jurkat E6.1, 0.031 µM, 72H",95
same,cell viability (0 µM = 100),"Jurkat E6.1 cells; Jurkat E6.1, 0.062 µM, 24H",94
same,cell viability (0 µM = 100),"Jurkat E6.1 cells; Jurkat E6.1, 0.062 µM, 48H",93
same,cell viability (0 µM = 100),"Jurkat E6.1 cells; Jurkat E6.1, 0.062 µM, 72H",98
same,cell viability (0 µM = 100),"Jurkat E6.1 cells; Jurkat E6.1, 0.25 µM, 72H",61
same,cell viability (0 µM = 100),"Jurkat E6.1 cells; Jurkat E6.1, 0.5 µM, 24H",41 and 43
same,cell viability (0 µM = 100),"Jurkat E6.1 cells; Jurkat E6.1, 0.5 µM, 72H",30 and 21
same,cell viability (0 µM = 100),"Jurkat E6.1 cells; Jurkat E6.1, 1 µM, 24H",19 and 21
same,cell viability (0 µM = 100),"Jurkat E6.1 cells; Jurkat E6.1, 1 µM, 48H",14 and 13
same,cell viability (0 µM = 100),"Jurkat E6.1 cells; Jurkat E6.1, 1 µM, 72H",8
same,cell viability (0 µM = 100),"Jurkat E6.1 cells; Jurkat E6.1, 2 µM, 48H",7
same,cell viability (0 µM = 100),"Jurkat E6.1 cells; Jurkat E6.1, 4 µM, 48H",3
same,effect on viability,"Jurkat E6.1 cells; Jurkat E6.1, CTG",strong dose-dependent effect
same,cell viability (Control = 100),"Jurkat E6.1 cells; 0.5 µM, VEH, listed as AVX420, 0.5 µM",46 and 55
same,cell viability (Control = 100),"Jurkat E6.1 cells; 1 µM, VEH, listed as AVX420, 1 µM",21
